Laboratory results: PMC11605291 (Frontiers in Pharmacology, 2024)
Where two headings read alike, the source gives them in different places.

Experiments:
[1] = Excretion of radioactivity in urine and feces (mass balance); assay type: in vivo, human
Method: (§1) Six subjects were admitted to the clinical research center 1 day prior to dosing, with random urine and fecal samples collected as blank excretion controls. After fasting overnight for at least 10 h, a blank blood sample was collected after a regular breakfast (449 kcal, with ∼35% energy from fat) on Day 1. […] It is noteworthy that the medication administration duration for each subject was strictly kept within 10 min. Scheduled collection of urine, feces, and blood samples, and safety monitoring proceeded until completion.
The excreta sample collection ceased when total radioactivity from excreta surpassed 80% of the administered dose, or less than 1% of the dose for two consecutive intervals. Blood sample collection ceased when the radioactivity of plasma at 2 consecutive time points was lower than 3 times the radioactivity at 0 h before administration. Based on the interim results, sample collection concluded earlier than initially planned.
(§2) Venous blood samples were collected within 0.5 h prior to administration and at 0.5, 1, 1.5, 2, 3, 4, 6, 8, 12, 24, 36, 48, 72, and 96 h after administration. About 8 mL of blood was collected at each time point in the anticoagulant collection tube containing K2-EDTA. The centrifuged plasma was used for non-radioactive and radioactive pharmacokinetic and biotransformation (metabolite) analyses. In addition, about 2 mL of venous blood was collected within 0.5 h before administration and at 1, 4, 8, 12, 24, and 48 h after administration for whole blood radioactivity analysis. Additional 10 mL of venous blood for each time point was collected at 1, 4, 8, 12, 24, and 48 h after administration, and the plasma was obtained by centrifugation for biotransformation (metabolites) analysis. Urine and fecal samples were collected until 144 h (4 subjects) or 192 h (2 subjects) after administration.
Radioactivity was measured using an oxidative combustion apparatus and liquid scintillation counter (LSC). After the whole blood sample was vortexed thoroughly, two portions (about 0.5 g each) were weighed into the combustion boat, and after complete combustion by oxidative combustion apparatus, [^14C]carbon dioxide generated from the combustion of the samples was captured by scintillation solution and measured by liquid scintillation counter. After plasma samples were fully vortexed, one portion (approximately 0.5 g) was weighed into a scintillation vial, mixed well with the scintillation solution, and measured using a liquid scintillation counter. When the radioactivity of the plasma sample after administration is below the LLOQ, additional samples can be added, up to a maximum of 1 g. After mixing the urine well, weighed one portion (about 1 g) into a scintillation bottle, then added scintillation solution to mix well, and use a liquid scintillation counter to measure the radioactivity. The feces were transferred to labelled containers with known empty weights and soaked in an appropriate amount of 50% aqueous isopropanol solution for about 2–4 h or for a certain period of time (e.g., overnight) at 1°C–9°C. Before homogenization, the solution was made up to a suitable dilution by the addition of an appropriate amount of 50% aqueous isopropanol, the total weight was weighed and recorded, and the homogenization was carried out using a tissue homogenizer. Two equal portions of the homogenate (approximately 0.3 g) were weighed into a combustion boat and fully combusted by an oxidative combustion apparatus, and the [^14C]carbon dioxide generated from the combustion of the samples was captured with a scintillation solution and measured using a liquid scintillation counter.
The combustion efficiency of the oxidative combustor was verified by performing a combustion recovery test using a^14C-containing standard solution of known radioactivity concentration prior to combustion of the sample. […]

[2] = Plasma pharmacokinetics of amdizalisib (LC-MS/MS) after a single oral dose of [14C]amdizalisib suspension; assay type: in vivo, human; settings: for CL/F: amdizalisib in plasma, single oral 30 mg/100 µCi suspension, mean ± SD
Method: as §1, §2
Chromatographic separation was achieved on an XBridge C18 column, maintained at 40°C, with a mobile phase consisting of 2 mM ammonium formate in water (A) and methanol (B). A gradient elution was employed at a flow rate of 0.6 mL/min. The autosampler was set to 5°C, with an injection volume of 5 μL. […] Each analytical run included calibration standards and quality control samples to ensure method accuracy and precision. The corrected total concentration data of labelled (^14C) and unlabeled (^12C) analytes were given directly by Analyst data processing software. The standard curve consists of 0.500, 1.00, 2.00, 10.0, 50.0, 200, 450, 500 ng/mL. The quality control (QC) sample concentrations were 0.5 (lower limit of quantification QC), 1.50 (lower QC), 20.0 (low to medium QC), 250 (medium QC), 400 (high QC) ng/mL, respectively.
Pharmacokinetic analysis was performed using Phoenix WinNonlin® software version 8.3. […] Non-compartmental model was used to estimate the main PK parameters. Descriptive statistics applied to parameters including maximum plasma concentration after administration (Cmax), the time to reach maximum plasma concentration after administration (Tmax), elimination rate constant (λz), area under the plasma concentration-time curve from the time 0 to the time of last quantifiable concentration (AUC0-t, obtained by the linear trapezoidal method), area under the plasma concentration-time curve from time 0 extrapolated to infinity (AUC0-∞, AUC0-∞ = AUC0-t + Ct/λ z ), half-life (t1/2, t1/2 = ln ([…])/λz), mean residence time (MRT, MRT = AUMC/AUC), apparent clearance (CL/F, CL/F = Dose/AUC0-∞), apparent volume of distribution based on terminal phase (Vz/F, Vz/F = Dose/(λz×AUC0-∞)).

[3] = Total radioactivity in plasma and whole blood (LSC), pharmacokinetics and blood-to-plasma ratio; assay type: in vivo, human
Method: Six subjects were admitted to the clinical research center 1 day prior to dosing, with random urine and fecal samples collected as blank excretion controls. After fasting overnight for at least 10 h, a blank blood sample was collected after a regular breakfast (449 kcal, with ∼35% energy from fat) on Day 1. […] Scheduled collection of urine, feces, and blood samples, and safety monitoring proceeded until completion.
Pharmacokinetic analysis was performed using Phoenix WinNonlin® software version 8.3. […] Descriptive statistics applied to parameters including maximum plasma concentration after administration (Cmax), the time to reach maximum plasma concentration after administration (Tmax), elimination rate constant (λz), area under the plasma concentration-time curve from the time 0 to the time of last quantifiable concentration (AUC0-t, obtained by the linear trapezoidal method), area under the plasma concentration-time curve from time 0 extrapolated to infinity (AUC0-∞, AUC0-∞ = AUC0-t + Ct/λ z ), half-life (t1/2, t1/2 = ln ([Lannutti et al., 2011])/λz), mean residence time (MRT, MRT = AUMC/AUC), apparent clearance (CL/F, CL/F = Dose/AUC0-∞), apparent volume of distribution based on terminal phase (Vz/F, Vz/F = Dose/(λz×AUC0-∞)).
Radioactivity was measured using an oxidative combustion apparatus and liquid scintillation counter (LSC). After the whole blood sample was vortexed thoroughly, two portions (about 0.5 g each) were weighed into the combustion boat, and after complete combustion by oxidative combustion apparatus, [^14C]carbon dioxide generated from the combustion of the samples was captured by scintillation solution and measured by liquid scintillation counter. After plasma samples were fully vortexed, one portion (approximately 0.5 g) was weighed into a scintillation vial, mixed well with the scintillation solution, and measured using a liquid scintillation counter. […]

[4] = parameters: method as in Cao W. et al., 2023; settings: 30 mg amdizalisib capsules, fed condition, Chinese healthy volunteers ref Cao W. et al., 2023; cited from earlier work
[5] = total radioactivity in plasma, mean ± SD

With C[C@H](Nc1ncnc(N)c1C#N)c1cc2ncc(Cl)n2nc1-c1ccccc1 [Amdizalisib] the “Aefeces, % of dose” value ([1]; Total (mean ± SD), 6 subjects, feces 0–144/192 h) was 62.08 % of dose, the “Aefeces, % of dose” value ([1]; Total (mean ± SD), 6 subjects, feces 0–144/192 h, listed as [^14C] Amdizalisib) was 62.08 ± 3.00 % of dose and the “Aeurine, % of dose” value ([1]; Total (mean ± SD), 6 subjects, urine 0–144/192 h) was 37.15 % of dose. The “Aeurine, % of dose” value ([1]; Total (mean ± SD), 6 subjects, urine 0–144/192 h, listed as [^14C] Amdizalisib) was 37.15 ± 2.84 % of dose, the “Aetotal, % of dose” value ([1]; Total (mean ± SD), 6 subjects, urine and feces 0–144/192 h, listed as [^14C] Amdizalisib) was 99.23 ± 0.30 % of dose and the “Aetotal, % of dose” value ([1]; Total (mean ± SD), 6 subjects, urine and feces 0–144/192 h, listed as [^14C]amdizalisib) was 99.23 % of dose. The “time within which completely excreted” value ([1]; single oral dose of [14C]amdizalisib suspension) was at most 168 h, the “Aefeces, % of dose” value ([1]; subject 1,001, feces 0–192 h) was 58.49 % of dose and the “Aeurine, % of dose” value ([1]; subject 1,001, urine 0–192 h) was 40.40 % of dose. For the same compound, the “Aetotal, % of dose” value ([1]; subject 1,001, urine and feces 0–192 h) was 98.89 % of dose, the “Aefeces, % of dose” value ([1]; subject 1,002, feces 0–192 h) was 63.33 % of dose and the “Aeurine, % of dose” value ([1]; subject 1,002, urine 0–192 h) was 35.85 % of dose. For the same compound, the “Aetotal, % of dose” value ([1]; subject 1,002, urine and feces 0–192 h) was 99.18 % of dose, the “Aefeces, % of dose” value ([1]; subject 1,003, feces 0–144 h) was 64.48 % of dose and the “Aeurine, % of dose” value ([1]; subject 1,003, urine 0–144 h) was 35.12 % of dose. For the same compound, the “Aetotal, % of dose” value ([1]; subject 1,003, urine and feces 0–144 h) was 99.60 % of dose, the “Aefeces, % of dose” value ([1]; subject 1,004, feces 0–144 h) was 58.70 % of dose and the “Aeurine, % of dose” value ([1]; subject 1,004, urine 0–144 h) was 40.65 % of dose. The “Aetotal, % of dose” value ([1]; subject 1,004, urine and feces 0–144 h) was 99.35 % of dose, the “Aefeces, % of dose” value ([1]; subject 1,005, feces 0–144 h) was 61.77 % of dose and the “Aeurine, % of dose” value ([1]; subject 1,005, urine 0–144 h) was 37.11 % of dose. For the same compound, the “Aetotal, % of dose” value ([1]; subject 1,005, urine and feces 0–144 h) was 98.88 % of dose, the “Aefeces, % of dose” value ([1]; subject 1,006, feces 0–144 h) was 65.73 % of dose and the “Aeurine, % of dose” value ([1]; subject 1,006, urine 0–144 h) was 33.74 % of dose. The “Aetotal, % of dose” value ([1]; subject 1,006, urine and feces 0–144 h) was 99.47 % of dose, the “average excretion of total radioactivity within 96 h after administration” value ([1]; urine plus feces) was “over 94 % of the administered dose” and the “excretion within 96 h as share of the total excretion from 0 h to 192 h” value ([1]; urine plus feces) was 94.74%. The “average excretion of total radioactivity within 96 h after administration” value ([1]; urine plus feces, listed as [^14C]amdizalisib) was 94.01 % of the administered dose, the CL/F [2] was 16.8 ± 4.44 L/h and the CL/F ([2]; listed as amdizalisib) was 16.8 L/h. It also gave a concentration at 72 h ([2]; male, human, plasma, oral, 30 mg, below the lower quantifiable limit in 4 of 6 subjects, detectable in 2) of under 0.5 ng/mL, an AUC(0-inf) ([2]; male, human, plasma, po, 30 mg) of 1880 ± 478 ng·h/mL and an AUC(0-t) ([2]; male, human, plasma, po, 30 mg) of 1870 ± 474 ng·h/mL. For the same compound, the Cmax ([2]; male, human, plasma, po, 30 mg) was 244 ± 48.9 ng/mL, the half-life ([2]; male, human, plasma, po, 30 mg) was 8.34 ± 2.43 h and the MRT last ([2]; male, human, plasma, po, 30 mg, read-out: MRT0-t) was 9.65 ± 1.48 h. For the same compound, the Vd/F ([2]; male, human, plasma, po, 30 mg, read-out: Vz/F) was 192 ± 28 L, the “average plasma total radioactivity concentration at 96 h post dose” value ([3]; still detectable in 4 subjects) was 4.74 ng Eq./mL and the “AUC0-t of total radioactivity” value [3, 5] was 3,900 h ng Eq./mL. The “CL/F of total radioactivity” value [3, 5] was 7.25 L/h, the “Cmax of total radioactivity” value [3, 5] was 368 ng Eq./mL and the “AUC0-∞” value [4] was 1,574 h٠ng/mL. The Cmax [4] was 152 ng/mL.
